Test: gradient 5% acetonitrile 3 min, to 50% in 2 min, to 85% in 15 min, held 3 min, 100 µL/min
Settings: column: Zorbax Extend-C18 2.1 x 50 mm; eluents: water / acetonitrile, 0.1% formic acid
How it was run: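 Retention times come from adduct peaks that were picked computationally and then checked by hand. The standards, pure and pooled in mixtures of ~100 molecules, were run on a Zorbax Extend-C18 column (2.1 × 50 mm, 1.8 μm) at 100 μL/min with water and acetonitrile, each with 0.1% formic acid. Detection was by quadrupole time-of-flight mass spectrometry in positive and negative ionization mode, with a dead volume of 40 μL and a dwell volume of 900 μL.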

RP-LC retention time [s]	Compound
993	O=C(Cn1cnc2c(sc3nc(-c4ccccc4)ccc32)c1=O)Nc1ccccc1F
712	COc1ccc(NC(=O)C2CCN(S(=O)(=O)c3cc4c(cc3C)NC(=O)CO4)CC2)cc1OC
1030	CCN1C(=O)c2cc(S(=O)(=O)Nc3cc(C)ccc3F)ccc2Oc2cccnc21
673	O=C(NC1CC1)c1ccc(CN2CCN(Cc3ccc(F)cc3)C(=O)C2=O)cc1
934	Cc1noc(-c2ccc(OC3CN(C(=O)C(C)c4ccccc4)C3)cc2)n1 (centres undefined)
942	O=C(NCc1ccc(F)cc1)c1nc(Cn2c(=O)oc3ccc(Cl)cc32)no1
798	COc1ccccc1-c1nnc(-c2ccc(OC)c(S(=O)(=O)N(C)C)c2)o1
685	CCc1nnc2c(=O)n(CC(=O)NCc3ccccc3F)c3cccnc3n12
850	COc1ccc(NC(=O)Cn2cccc2-c2nnc(C3CCC3)o2)cc1
877	Cc1cccc(NC(=O)N2CCC(n3cnc4c(Cl)cccc4c3=O)CC2)c1
912	Cc1ccc(NC(=O)C2C(=O)NC3(C)CC2c2ccccc2O3)c(C)c1 (centres undefined)
1070	CSc1cccc(NC(=O)Cn2cccc2-c2nc(-c3ccccc3)no2)c1
1280	Cn1nc(C(=O)Nc2ccc(F)cc2)c2c1-c1cc(Cl)ccc1SC2
1140	CCc1nc(-c2csc(S(=O)(=O)N3CCC(C(=O)Nc4ccc(C(C)C)cc4)CC3)c2)no1
779	CSc1cccc(NC(=O)N2CCC(N3CCN(Cc4cccc(F)c4)C(=O)C3=O)CC2)c1
770	CCOC(=O)c1cc2c([nH]c1=O)CC(c1cccc(Cl)c1)CC2=O (centres undefined)
711	O=C(CN1CCC2(CC1)N=C(c1cccc(F)c1)C(=O)N2)Nc1ccc(Br)cc1F
797	CCOC(=O)c1c(C)[nH]c(C)c1S(=O)(=O)N1CCC(C(=O)Nc2cccc(C#N)c2)CC1
645	CC1=C(C(=O)OCCC#N)C(c2ccccc2F)NC(=O)N1 (centres undefined)
981	Cc1ccsc1C(=O)Nc1cccc(OCc2nnc(-c3ccc(F)cc3)o2)c1
854	Cc1ccc(Cl)cc1N1C(=O)CN(S(C)(=O)=O)CC1(C)C(=O)NCc1ccccc1 (centres undefined)
703	COc1ccc(Cl)cc1NC(=O)C1c2cc(OC)c(OC)cc2C(=O)N(C)C1c1cccnc1 (centres undefined)
748	CCOc1ccc(CCNC(=O)c2ccc(-n3cnc(NC(=O)C4CC4)c3)cc2)cc1OCC
1060	O=C(Nc1nc(-c2ccc(F)cc2)cs1)c1cccc(F)c1
721	O=C1NCCCn2nc(C3CCN(C(=O)Nc4cccc(C(F)(F)F)c4)CC3)cc21
774	O=C(c1cccc(F)c1)N1CCN(c2cc(-c3cccs3)[nH]n2)CC1
737	COc1cccc(NC(=O)C2CC(=O)N(c3n[nH]c4cccc(F)c34)C2)c1 (centres undefined)

Second part, the compound before the results:

Compound	RP-LC retention time [s]
Cc1ccc(-c2nnc(-c3nc(NCCC4=CCCCC4)c4ccccc4n3)o2)cc1	1300
CC(C)N1C(=O)C(C)(C(=O)NC2CCCCCC2)Oc2cccnc21 (centres undefined)	1080
COc1cc(CNC(=O)CN2C(=O)C(C)(C)c3cc(C)ccc32)cc(OC)c1OC	794
CN1C(=O)C2CCCCN2c2ccc(C(=O)N3CCN(C(=O)c4ccco4)CC3)cc21 (centres undefined)	701
C=CCNC(=O)C1CCN(Cc2noc(-c3ccc(F)cc3)n2)CC1	613
CCn1cnc(S(=O)(=O)N2CCC(C(=O)NCc3ccccc3Cl)CC2)c1	720
CCn1cc(S(=O)(=O)N2CCC[C@H]2c2nc(-c3ccc(F)cc3)n[nH]2)cn1	714
Cc1cc(C)nc(NS(=O)(=O)c2ccc(NC(=O)c3ccc(Cl)s3)cc2)n1	755
O=C(CCC1CCN(c2cc(NC3CC3)ncn2)CC1)NCc1ccc(F)cc1	649
O=C(NCc1ccccc1F)C1CCN(c2cncnc2N2CCOCC2)CC1	611
Cc1ccc(-c2nnc(CC(=O)NC3CCCCC3)o2)cc1	830
COCc1noc(CC2CCOC3(CCN(C(=O)NC4CCCCC4)CC3)C2)n1 (centres undefined)	758
O=C(NC1CC1)[C@@H]1C[C@H](Oc2cccnc2)CN1C(=O)CC1CCCC1	605
COCCn1c(CCCC(=O)NC2CCCCCC2)nc2cccnc21	667
COc1ccc(Cl)cc1S(=O)(=O)NCC1(C)CCOCC1	874
COCCN1CC2(CCN(S(=O)(=O)c3ccc(Cl)cc3C)CC2)C1c1ccccc1 (centres undefined)	779
CCC(=O)N1CCc2c(C(=O)NCc3ccc(N4CCC(C)CC4)cc3)cccc21	640
Cc1sc2cc(C(=O)NC3CC3)[nH]c2c1CN1CCCCC1	596
CCOc1ccc(S(=O)(=O)N2CCCC(C(=O)NCCCO)C2)cc1C (centres undefined)	736
CCN1CCN(c2cc(-c3nc(-c4ccccc4)no3)c3ccccc3n2)CC1	822
Cc1ccc(Cl)cc1NC(=O)CC1C(=O)NCCN1C(=O)NC1CCCCC1 (centres undefined)	766

Compound	RP-LC retention time [s]
O=C(Cn1ccc2cc(S(=O)(=O)N3CCCCC3)ccc21)N1CCN(c2ccccn2)CC1	660
Cn1nccc1-c1cccc(-c2noc(-c3ccc(Cl)cc3)n2)c1	1250
CC(C)CN1CCN(C(=O)c2cn(-c3cc(N4CCC(C)CC4)ncn3)cn2)CC1	663
CC(C)OCCCNC(=O)C1Cn2cccc2C(=O)N1C (centres undefined)	621
Cc1ccc2c(c1)N(Cc1nc(-c3ccc(Cl)cc3)no1)C(=O)CO2	1130
Cc1cc(C)c(S(=O)(=O)N2CCN(Cc3cccc(F)c3)C3(CCOCC3)C2)cc1C	974
Cc1ccc(F)cc1NS(=O)(=O)c1cc(-c2[nH]ncc2C(=O)N2CCOCC2)oc1C	704
CCC1CCCCN1CCCNC(=O)c1sc2nc3n(c(=O)c2c1C)CCC3 (centres undefined)	598
Cc1cccc(C)c1Nc1c(-c2ccc(Cl)cc2)nc2cnccn12	1030
O=C(NCCc1ccccc1)N(C1CCOCC1)C1CCN(Cc2cccc(F)c2)CC1	604
CCCn1ccc2oc(C)c(C(=O)NC(C)c3ccc(OCC)cc3)c2c1=O (centres undefined)	1070
Cn1cnc(S(=O)(=O)N2CC(Oc3ccc(-c4noc(C5CC5)n4)cc3)C2)c1	794
CC(C)NC(=O)c1ccc(OCC2CCN(C(=O)c3cccc(Cl)c3)CC2)cc1	899
COc1ccc(OC)c(NS(=O)(=O)c2cc(-c3nc(C(C)(C)C)cs3)cs2)c1	1250
COc1cc(OC)c(NS(=O)(=O)c2c(C)sc(C)c2-c2cc(C(F)(F)F)on2)cc1Cl	1170
O=C(NCC1CCCO1)c1csc(N2CCN(c3cccc(Cl)c3)CC2)n1 (centres undefined)	703
Cc1ccc(C(=O)Nc2c(-c3ccccc3)nc3ccccn23)cc1[N+](=O)[O-]	693
Cc1cccc(CNC(=O)c2csc(C(=O)NC3CC3)n2)c1	824
Cn1cc(C(=O)N2CCC(c3noc(-c4ccccc4)n3)C2)cn1 (centres undefined)	712
Cc1[nH]c(=O)[nH]c(=O)c1/C=C/C(=O)NC(CO)CC(C)C (centres undefined)	592
Cc1ccc(CNC(=O)c2cnn3c(-c4ccc(Cl)cc4)ccnc23)o1	1050

Compound	RP-LC retention time [s]
CCN1c2ccc(C)cc2C(=O)NC12CCN(C(=O)c1cc(C)cc(C)c1)CC2	912
COCc1cc(=O)n(Cc2ccccc2)c(N2CCCC2)n1	777
CCCC(=O)Nc1nc(-c2ccc(Br)s2)cs1	993
O=C(C1CCC1)N1CCCC(OCc2nc(-c3ccccc3)no2)C1 (centres undefined)	791
CCc1ccc(NC(=O)N2CCc3nc(C)ncc3C2)cc1	695
COc1ccc(C)cc1NC(=O)CCCn1cccc1	876
Cc1nc(CCNC(=O)C2CCN(S(=O)(=O)c3ccccc3C(F)(F)F)CC2)cs1	753
COCc1noc([C@@H]2CN(C(=O)CCc3c(C)noc3C)C[C@H]2C(N)=O)n1	607
CCc1ccc(-c2nn(C)c(=O)c3c2CCCC3)cc1S(=O)(=O)N1CCC(C(N)=O)CC1	736
CCS(=O)(=O)N1CCN(Cc2ccc(OC)nc2)CC1	921
CCCN(C(=O)Cc1ccccc1)c1nc(-c2ccccc2)cs1	1320
O=[N+]([O-])c1cccc(-c2ccc(SCc3ccccn3)nn2)c1	637
Cn1c(N2CCCC(C(=O)NCCCN3CCN(c4ccccc4)CC3)C2)cc(=O)n(C)c1=O (centres undefined)	600
Cc1noc2nc(C)n(CC(=O)NCc3ccc(Cl)cc3)c(=O)c12	783
Cc1noc(C)c1C1CCCN1C(=O)c1ccc2c(c1)OCO2 (centres undefined)	722
Cc1cc(N2CCN(C(=O)Nc3ccc(Cl)cc3)CC2)nc(N2CCOCC2)n1	655
Cc1oc(-c2[nH]ncc2C(=O)N2CCCC2)cc1S(=O)(=O)NCCC(C)C	736
CCN(CC)C(=O)Cn1nc2cc(C)nc(-c3cccc(Cl)c3)n2c1=O	790
CCN(CC)C(=O)c1ccc2c(c1)N(CC(=O)NC)C(=O)C1CCCCN21 (centres undefined)	684
O=C(CN1C(=O)c2cccnc2Sc2ccccc21)NCCc1c[nH]c2ccccc12	773

Reference: the METLIN SMRT retention time set (Domingo-Almenara et al. 2019)
